According to patent US7265130B2, “NPY Y5 antagonist” (Shionogi & Co., Ltd., priority 1999, dated 2007):

Columns and labels:
NPY Y2 receptor = biological target: T1, NPY Y2 receptor (Homo sapiens, UniProt P49146); assay: Affinity for NPY Y2 receptor (membranes from SMS-KAN cells); conditions: membranes from Y2-expression cells (human neuroblastoma, SMS-KAN); read-out: Binding IC50 for NPY Y2 receptor
T1 construct: membranes prepared from Y2-expression cells (human neuroblastoma, SMS-KAN); endogenous in cells; host or cells: SMS-KAN human neuroblastoma cells (membranes)
T1 sequence (P49146 1-381): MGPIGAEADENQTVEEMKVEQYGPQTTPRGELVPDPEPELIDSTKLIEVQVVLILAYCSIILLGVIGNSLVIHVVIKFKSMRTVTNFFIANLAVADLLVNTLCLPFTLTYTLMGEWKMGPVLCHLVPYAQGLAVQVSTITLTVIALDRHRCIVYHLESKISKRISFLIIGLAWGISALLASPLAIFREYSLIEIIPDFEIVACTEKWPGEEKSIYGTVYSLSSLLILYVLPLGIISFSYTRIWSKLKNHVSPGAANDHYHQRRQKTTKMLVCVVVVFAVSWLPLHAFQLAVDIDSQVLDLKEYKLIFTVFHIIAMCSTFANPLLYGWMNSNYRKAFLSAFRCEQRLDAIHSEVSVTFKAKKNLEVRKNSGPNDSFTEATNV
Protocol: (§1) The membranes prepared from the above CHO cells expressing NPY Y5 receptor, the compound of the present invention and 30,000 cpm [^125I] peptide YY (60 pM of final concentration: Amersham) were incubated in the assay buffer (20 mM HEPES-Hanks buffer containing 0.1% bovine serum albumin, pH 7.4) at 25° C. for 2 hours, and then the mixture was filtered with a glassfilter GF/C treated with polyethyleneimine. After the glassfilter was washed with 50 mM Tris-HCl buffer (pH 7.4), the radioactivity on the filter was measured with a gamma counter. The non-specific binding was detected in the presence of 200 nM of peptide YY. The 50% inhibitory concentration of the test compound against the specific peptide YY binding (IC50 value) was calculated (Inui, A. et al. Endocrinology 131, 2090-2096 (1992)).
(§2) Using the membranes prepared from Y1-expression cells (human neuroblastoma, SK-N-MC) and the membranes prepared from Y2-expression cells (human neuroblastoma, SMS-KAN), the experiment was carried out in a similar way as Experiment 1 to determine the affinity for NPY Y1 receptor and NPY Y2 receptor.

human NPY Y5 receptor [1] = biological target: T2, human NPY Y5 receptor (Homo sapiens, UniProt Q15761); assay: cAMP production inhibitory activity in CHO cells; format: cell-based; conditions: against 50 nM NPY inhibition of forskolin stimulated cAMP, CHO cells expressing human NPY Y5 receptor
T2 construct: expressed in transfected cells
T2 sequence (Q15761 1-445): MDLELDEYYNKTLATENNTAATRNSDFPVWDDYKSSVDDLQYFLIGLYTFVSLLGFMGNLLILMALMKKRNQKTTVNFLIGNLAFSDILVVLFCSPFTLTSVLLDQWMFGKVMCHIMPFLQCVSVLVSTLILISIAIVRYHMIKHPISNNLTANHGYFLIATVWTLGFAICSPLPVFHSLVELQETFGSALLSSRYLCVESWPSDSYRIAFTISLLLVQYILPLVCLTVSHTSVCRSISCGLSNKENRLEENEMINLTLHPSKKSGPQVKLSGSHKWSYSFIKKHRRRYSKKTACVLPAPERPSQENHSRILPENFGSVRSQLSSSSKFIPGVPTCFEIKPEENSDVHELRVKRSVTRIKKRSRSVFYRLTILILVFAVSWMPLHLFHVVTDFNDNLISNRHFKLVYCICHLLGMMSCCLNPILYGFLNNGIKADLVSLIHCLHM
How it was run: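 CHO cells expressing human NPY Y5 receptor preincubated 20 min at 37 °C with 2.5 mM IBMX, then with compound for 5 min. Stimulated with 50 nM NPY plus 10 μM forskolin for 30 min. Reaction stopped with 1N HCl; supernatant cAMP measured by EIA.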

NPY Y1 receptor = biological target: T3, NPY Y1 receptor (Homo sapiens, UniProt P25929); assay: Affinity for NPY Y1 receptor (membranes from SK-N-MC cells); conditions: membranes from Y1-expression cells (human neuroblastoma, SK-N-MC); read-out: Binding IC50 for NPY Y1 receptor
T3 construct: membranes prepared from Y1-expression cells (human neuroblastoma, SK-N-MC); endogenous in cells; host or cells: SK-N-MC human neuroblastoma cells (membranes)
T3 sequence (P25929 1-384): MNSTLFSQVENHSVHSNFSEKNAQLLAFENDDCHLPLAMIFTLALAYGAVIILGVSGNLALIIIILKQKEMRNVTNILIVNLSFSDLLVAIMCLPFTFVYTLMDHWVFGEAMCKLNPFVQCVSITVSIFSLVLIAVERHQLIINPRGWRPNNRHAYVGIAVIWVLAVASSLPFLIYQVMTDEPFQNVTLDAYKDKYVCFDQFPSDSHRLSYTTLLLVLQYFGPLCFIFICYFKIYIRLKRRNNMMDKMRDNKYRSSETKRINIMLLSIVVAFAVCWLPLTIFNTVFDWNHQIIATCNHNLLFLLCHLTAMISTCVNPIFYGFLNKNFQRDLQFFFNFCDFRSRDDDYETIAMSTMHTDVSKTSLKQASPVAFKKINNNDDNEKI
Protocol: as §1, §2

human NPY Y5 receptor [2] = biological target: T2, human NPY Y5 receptor; assay: Affinity for NPY Y5 receptor ([125I] peptide YY binding, CHO cell membranes); conditions: inhibition of specific [125I] peptide YY binding, membranes of CHO cells expressing NPY Y5 receptor
How it was run: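 Membranes from CHO cells stably expressing human NPY Y5 receptor incubated with test compound and [125I] peptide YY (60 pM final) in HEPES-Hanks buffer with 0.1% BSA, pH 7.4, 25° C for 2 hours. Filter-bound radioactivity counted; non-specific binding with 200 nM peptide YY; IC50 against specific binding calculated.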

SMILES	IC50 (NPY Y2 receptor)	IC50 (human NPY Y5 receptor [1])	IC50 (NPY Y1 receptor)	IC50 (human NPY Y5 receptor [2])
C[C@@H]1CN(c2ccc(NC(=O)C3CCC(NS(=O)(=O)C(C)(C)C)CC3)c(F)c2)C[C@H](C)O1 (stereo partly drawn) [Ia-26]	≥ 100 µM	27 nM	≥ 100 µM	1.9 nM
CC(C)S(=O)(=O)NC1CCC(C(=O)Nc2cccc(OC3CCCC3)c2)CC1 (stereo not drawn) [Ia-199]	≥ 100 µM	1.6 nM	≥ 100 µM	0.11 nM
CC(C)(C)S(=O)(=O)NC1CCC(C(=O)Nc2ccc(C(F)(F)F)cn2)CC1 (stereo not drawn) [Ia-178]	≥ 100 µM	16 nM	≥ 100 µM	4.6 nM
CC(C)(C)S(=O)(=O)NC1CCC(C(=O)Nc2ccc(Br)cc2)CC1 (stereo not drawn) [Compound I-63]	≥ 100 µM	50 nM	≥ 100 µM	1.3 nM
C[C@@H]1CN(c2ccc(NC(=O)c3ccc(NS(=O)(=O)C(C)(C)C)cc3)cc2)C[C@H](C)O1 [Ia-124]	≥ 100 µM	22 nM	≥ 100 µM	1.1 nM
Cc1cc(NC(=O)C2CCC(NS(=O)(=O)C(C)C)CC2)ccc1N1C[C@@H](C)O[C@@H](C)C1 (stereo partly drawn) [Ia-50]	≥ 100 µM	24 nM	≥ 100 µM	1.7 nM
CC(C)(C)S(=O)(=O)NC1CCC(C(=O)Nc2ccc(Cl)cc2Cl)CC1 (stereo not drawn) [Ia-31]	≥ 100 µM	11 nM	≥ 100 µM	3.8 nM
CC(C)(C)S(=O)(=O)NC1CCC(C(=O)Nc2ccc3oc(=O)ccc3c2)CC1 (stereo not drawn) [Ia-62]	≥ 100 µM	29 nM	≥ 100 µM	1.1 nM
C[C@@H]1C[C@H](C)CN(c2ccc(NC(=O)C3CCC(NS(=O)(=O)C(C)(C)C)CC3)cc2)C1 (stereo partly drawn) [Ia-37]	≥ 100 µM	3.8 nM	≥ 100 µM	0.73 nM
CC(C)NC(=O)c1cccc(NC(=O)C2CCC(NS(=O)(=O)C(C)(C)C)CC2)c1 (stereo not drawn) [Compound I-205]	≥ 100 µM	17 nM	≥ 100 µM	2.9 nM
CC(C)(C)S(=O)(=O)NC1CCC(C(=O)Nc2ccc(Cl)c(Cl)c2)CC1 (stereo not drawn) [Ia-32]	≥ 100 µM	6.7 nM	≥ 100 µM	0.52 nM

Further lines, results first:

IC50 (NPY Y2 receptor)	IC50 (human NPY Y5 receptor [1])	IC50 (NPY Y1 receptor)	IC50 (human NPY Y5 receptor [2])	SMILES
≥ 100 µM	38.2 nM	≥ 100 µM	5.3 nM	CC(C)(C)S(=O)(=O)NC1CCC(C(=O)Nc2ccc(N3CCOCC3)cc2)CC1 (stereo not drawn) [Compound I-41]
≥ 100 µM	14.9 nM	≥ 100 µM	0.6 nM	CC(C)(C)S(=O)(=O)NC1CCC(C(=O)Nc2ccc(I)cc2)CC1 (stereo not drawn) [Compound I-47]
≥ 100 µM	80 nM	≥ 100 µM	2.2 nM	CC(C)(C)S(=O)(=O)NC1CCC(C(=O)Nc2ccc3c(c2)OCO3)CC1 (stereo not drawn) [Compound I-64]
≥ 100 µM	5.3 nM	≥ 100 µM	0.26 nM	CC(C)(C)S(=O)(=O)NC1CCC(C(=O)Nc2ccc(-n3cccc3)cc2)CC1 (stereo not drawn) [Compound I-61]
≥ 100 µM	9.3 nM	≥ 100 µM	2.2 nM	C[C@@H]1CN(c2ccc(NC(=O)C3CCC(NS(=O)(=O)C(C)(C)C)CC3)cn2)C[C@H](C)O1 (stereo partly drawn) [Ia-40]
≥ 100 µM	7.3 nM	≥ 100 µM	1 nM	C[C@@H]1CN(c2ccc(NC(=O)C3CCC(NS(=O)(=O)C(C)(C)C)CC3)c(F)c2F)C[C@H](C)O1 (stereo partly drawn) [Ia-29]
≥ 100 µM	18 nM	≥ 100 µM	1.4 nM	CC(C)(C)S(=O)(=O)NC1CCC(C(=O)Nc2ccc(OC3CCOCC3)cc2)CC1 (stereo not drawn) [Ia-200]
